Data taken from patent publication US8217006B2, “Inhibiting GS-FDH to modulate no bioactivity” (Duke University, priority 2001, dated 2012).

Experiments:
sfa1 mutant cells = test: Growth of GS-FDH-deficient yeast under nitrosative or oxidative stress; assay type: cell-based
Description: Genet. 237, 351 (1993) (SFA1/YDL168w) was replaced with dominant selectable cassettes Kan 2 (resistant to G418) or hphMX (resistant to hydromycin) by direct targeting as described in Wach, A., et al., Yeast 10, 1793 (1994). KanMX2 is described in Wach, A. et al., Yeast 10, 1793 (1994). hphMX is described in Goldstein and MeCuskler, Yeast 15, 1541 (1991).

cystic fibrosis = test: Example II: patient with cystic fibrosis; assay type: in vivo, human; settings: inhaled S-nitrosoglutathione (10 mM in 3 cc) in combination with D-glutathione (3 mM in 10 cc); over the following day
Description: A person with cystic fibrosis presents to the Emergency Room with difficulty breathing and a fever.

ARDS = settings: inhaled 10 mM in 3 cc normal saline; from 60 mm Hg on 100% oxygen; over 1 hour
Description: A person develops ARDS as a complication of urosepsis. They are intubated and transferred to the Intensive Care Unit.

unstable angina = settings: intravenous infusion 100 mg per kg Q6 hours; on betablockers and nitrates
Description: A person status post CABG×2 presents with unstable angina.

blood pressure = settings: 600 milligrams BID; three weeks later; 160/90 before
Description: A person presents to their primary care physician.

liver function = settings: infusion 200 milligrams per kilogram every 6 hours; over the following week
Description: A child presents to the Emergency Room having ingested a toxic dose of Tylenol. […] This is an example of treating a patient for a disease where there is risk of apoptosis occurring.

Hodgkins disease = settings: 1 gram three times a day for a month
Description: A person has a biopsy done on an axillary node which establishes the diagnosis of Hodgkins disease.

[1] = system: 90% lesion of the left anterior descending coronary artery; settings: 600 mg P.O. three times a day for a month
Description: A person has a stent placed for 90% lesion of the left anterior descending coronary artery.

severe heart failure = settings: infusion 1 gram TED for 10 days
Description: A person with acute viral myocarditis develops severe heart failure. […] They are placed on the transplant list.

angina = test: Example XXVII: angina treated with nitroglycerine and GS-FDH inhibitor; assay type: in vivo, human; settings: 600 mg TIE, concomitantly with nitroglycerine
malignant hypertension = test: Example XXVIII: heart failure and malignant hypertension; assay type: in vivo, human
Description: A person presents with heart failure and malignant hypertension.

wheezing = settings: intravenous infusion 50 mg/kg Q.6 hours; person
atherosclerosis = settings: 600 mg TID for a week
[2] = system: swollen abdomen and elevated LSTs; settings: infusion 200 milligrams per kilogram every 6 hours for two weeks
viral pneumonia = settings: inhaled, 3 mM/3 cc normal saline four times a day
Description: A person status post lung transplant is admitted to the hospital with viral pneumonia.

pinworm = settings: 1 gram daily for three days
squamous cell cancer = settings: intravenously 200 milligrams per kilogram four times a day; stage 3B before
[3] = system: benign prostatic hypertrophy; settings: 600 mg three times a day; over three months
[4] = GSNO decomposition in reaction buffer, no lysate (Saville assay); assay type: biochemical; settings: 200 μM GSNO, 37° C., 5 minutes
Description: (§1) After precipitation of the reaction mixtures with trichloroacetic acid (8.3% final concentration), the supernatants were diluted threefold in the buffer and nitrosothiol levels in the reaction mixture were measured by the Saville assay as described in Stamler, J. S., Science 276, 2034 (1997). Data are the mean of two independent experiments.

human HeLa cells = test: GSNO metabolizing activity of HeLa cell lysate (Saville assay); assay type: biochemical; settings: HeLa lysate 4 μg/ml, 200 μM GSNO, 37° C., 5 minutes
Description: as §1, with “The cells were from cell lines obtained from the ATCC. Cells were homogenized by sonication in a solution containing 20 mM Tris-HCl (pH 8.0), 0.5 mM EDTA, 0.1% NP-40 and 1 mM phenylmethylsulfonyl fluoride (PMSF). […] After” for “After”

[5] = system: human epithelial A549 cells; test: GSNO metabolizing activity of A549 cell lysate (Saville assay); assay type: biochemical; settings: A549 lysate 4 μg/ml, 200 μM GSNO, 37° C., 5 minutes
Description: as §1, with “The cells were from cell lines obtained from the ATCC. Cells were homogenized by sonication in a solution containing 20 mM Tris-HCl (pH 8.0), 0.5 mM EDTA, 0.1% NP-40 and 1 mM phenylmethylsulfonyl fluoride (PMSF). […] After” for “After”

[6] = system: human monocyte THP-1 cells; test: GSNO metabolizing activity of THP-1 cell lysate (Saville assay); assay type: biochemical; settings: THP-1 lysate 4 μg/ml, 200 μM GSNO, 37° C., 5 minutes
Description: as §1, with “The cells were from cell lines obtained from the ATCC. Cells were homogenized by sonication in a solution containing 20 mM Tris-HCl (pH 8.0), 0.5 mM EDTA, 0.1% NP-40 and 1 mM phenylmethylsulfonyl fluoride (PMSF). […] After” for “After”

wild-type Y190 cells = test: Growth of wild-type yeast treated with GSNO; assay type: cell-based; settings: same concentrations as for the mutants
[7] = system: Cells from an injured mouse liver; test: Survival of cells from cytokine-injured mouse liver treated with NO synthase inhibitor; assay type: cell-based; settings: 1 millimolar
Description: (§2) Hepatocytes of wild-type mice and their GS-FDH^−/− littermates were harvested after perfusion of the livers with Liberase (Roche), and purified by repeated differential sedimentation at 50×g, followed by centrifugation over a 30% Percoll solution. […] The cells were then cultured in the presence of recombinant mouse tumor necrosis factor-α (500 units/ml), interferon-gamma (100 units/ml), interleuken-1β (200 units/ml) and lipopolysaccharide (LPS, 10 μg/ml; E. coli 0128:B12; Sigma) for 14 and 40 hours. Nitrosylation levels in hepatocytes were measured as described in Eu, J., et al., Biochemistry 39, 1040-1047 (2000). […] See Liu, L. and Stamler, J. S., Cell Death and Differentiation 6, 937-942 (1999).

[8] = system: injured mouse liver cells deficient in GS-FDH; test: Survival of GS-FDH-deficient cells from cytokine-injured mouse liver treated with NO synthase inhibitor; assay type: cell-based; settings: same cells but deficient in GS-FDH; 1 millimolar
Description: as §2

mouse GS-FDH = target: T1, mouse GS-FDH (Mus musculus, UniProt P28474); test: Kinetic analysis of purified GSNO reductase (GS-FDH) from RAW 264.7 cells; assay type: biochemical; settings: purified protein
T1 construct: GSNO-metabolizing activity of RAW 264.7 cells was recovered in a single function following anion exchange on a MonoQ column; endogenous in cells; host or cells: RAW 264.7 mouse macrophages (ATCC); purified by ammonium sulfate precipitation, MonoQ and 5' AMP Sepharose 4B
Description: Cells were homogenized by sonication in a solution containing 20 mM Tris-HCl (pH 8.0), 0.5 mM EDTA, 0.1% NP-40 and 1 mM phenylmethylsulfonyl (PMSF).
Further purification over a 5′ AMP Sepharose column yielded a single band of about 43 kDa in a silver-stained SDS-PAGE gel. […] After dialysis against 20 mM Tris-HCl (pH 8.0), the proteins were fractionated on a MonoQ column with increasing concentrations of NaCl. […] SDS-PAGE and Coomassie blue staining gave the single band of about 43 kDa.
The purified protein was digested by trypsin and the resulting peptides were analyzed by mass spectrometry. Peptide mass database search with GPMAW program identified the protein as mouse GS-FDH(SP-P28474) with high scores, matching 8 fragments (42% coverage) to mouse GS-FDH.

impotence = test: Example XIII: diabetic patient with impotence; assay type: in vivo, human
Description: A diabetic with a history of impotence presents to their urologist. […] Their physician adds topical mycophenolic acid (5% paste) with good results.

tumors = settings: previous use; cited from earlier work
restenosis = test: Example X: restenosis post-angioplasty, drug-coated stent; assay type: in vivo, human; settings: Nir stent coated with drug, 30% per polymer
Description: The patient was discharged the following day, and did well.

intractable angina = test: Example VIII: patient with intractable angina; assay type: in vivo, human; settings: 6 grams injected at 20 milligrams per milliliter, daily for seven days; by six weeks
Description: A person with intractable angina is administered ribavirn as 6 grams diluted to a final volume of 300 cc in sterile water and injected at a final concentration of 20 milligrams per milliliter, given daily for seven days.

pulmonary embolism = test: Example IX: patient with pulmonary embolism; assay type: in vivo, human; settings: inhaled, 6 grams in 300 cc, aerosol, 12 hours/day for three days
Description: A person presents with shortness of breath and hemoptysis. […] Treatment is carried out for 12 hours/day for three days.

chronic psoriasis = test: Example XI: patient with chronic psoriasis; assay type: in vivo, human; settings: topical paste, 5% with acetylsalicylic acid 2%, 8 hours a day, two weeks
Description: A person with chronic psoriasis presents at the dermatologist. A paste comprised of acetylsalicylic acid, 2%, combined with 5% ribavirin was applied topically for 8 hours a day.

ringworm = test: Example XVI: ringworm; assay type: in vivo, human; settings: topical ointment 5%, daily for a week

T1 sequence (P28474 whole entry): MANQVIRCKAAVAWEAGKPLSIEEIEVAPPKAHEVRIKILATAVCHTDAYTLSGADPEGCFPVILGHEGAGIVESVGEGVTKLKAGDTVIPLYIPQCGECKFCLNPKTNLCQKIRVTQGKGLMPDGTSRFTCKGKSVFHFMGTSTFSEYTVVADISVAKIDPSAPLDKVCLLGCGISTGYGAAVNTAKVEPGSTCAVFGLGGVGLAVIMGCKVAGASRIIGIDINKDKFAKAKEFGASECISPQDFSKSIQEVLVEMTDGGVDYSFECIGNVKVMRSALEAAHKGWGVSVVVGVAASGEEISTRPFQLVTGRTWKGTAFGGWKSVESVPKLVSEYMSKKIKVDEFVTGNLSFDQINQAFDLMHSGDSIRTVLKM

Compound: OO [Compound H2O2, H2O2]
- sensitivity to the toxic effects, mutant versus wild-type Y190 cells (sfa1 mutant cells; sfa1 mutant cells): no more sensitive

Compound: N[C@H](CCC(=O)N[C@H](CS)C(=O)NCC(=O)O)C(=O)O [D-glutathione]
- symptoms (difficulty breathing, fever) (cystic fibrosis): symptoms resolve
- PO2 (ARDS): 80 mm/Hg
- symptoms (chest pain) (unstable angina): relief of their symptoms
- blood pressure (blood pressure): 140/80
- liver function (liver function): gradual normalization of liver function
- adenopathy (Hodgkins disease): resolution of adenopathy
- course after stent placement [1]: does well
- clinical course (severe heart failure): stabilized their deteriorating course
- symptoms (chest pain) (angina): total relief of symptoms
- Blood pressure, systolic (malignant hypertension; 600 mg TID coadministered with nitroprusside, from 200): 160
- breathing (wheezing): breathing improves
- response to acetylcholine (atherosclerosis): improved response to acetylcholine
- swelling and LSTs [2]: swelling and elevated LSTs are reduced
- symptoms of cough and shortness of breath (viral pneumonia): resolution of symptoms of cough and shortness of breath
- signs and symptoms (pinworm): signs and symptom resolve
- tumor stage on restaging (squamous cell cancer): 3A
- symptoms (urinary frequency and hesitancy) [3]: symptoms gradually resolve

Compound: N[C@@H](CCC(=O)N[C@@H](CSN=O)C(=O)NCC(=O)O)C(=O)O [GSNO, S-nitrosoglutathione]
- GSNO metabolizing activity ([4]; +NADH): 0.0%
- GSNO metabolizing activity ([4]; +NADPH + GSH + ASA): 0.7%
- GSNO metabolizing activity ([4]; Buffer only): 6.2%
- GSNO metabolizing activity (human HeLa cells; +NADH): 84.2%
- GSNO metabolizing activity (human HeLa cells; +NADPH + GSH + ASA): 35.4%
- GSNO metabolizing activity (human HeLa cells; Buffer only): 29.9%
- GSNO metabolizing activity ([5]; +NADH): 72.3%
- GSNO metabolizing activity ([5]; +NADPH + GSH + ASA): 43.9%
- GSNO metabolizing activity ([5]; Buffer only): 14.7%
- GSNO metabolizing activity ([6]; +NADH): 90.8%
- GSNO metabolizing activity ([6]; +NADPH + GSH + ASA): 22.6%
- GSNO metabolizing activity ([6]; Buffer only): 18.8%
- Growth of cells (sfa1 mutant cells; sfa1 mutant cells (G418^r and hygromicin^r clones)): markedly inhibited
- Growth of cells (wild-type Y190 cells): little effect
- symptoms (difficulty breathing, fever) (cystic fibrosis): symptoms resolve

Compound: CNC(=N)NCCC[C@H](N)C(=O)O [N^G-methyl-L-arginine]
- nitric oxide synthase activity left [7]: 20%
- cell death ([7]; liver injured by cytokine administration): found to die
- cell death [8]: died to a lesser extent

Compound: N[C@@H](CCC(=O)N[C@@H](CSCO)C(=O)NCC(=O)O)C(=O)O [S-hydroxymethylglutathione]
- specific activity for oxidation, as share of the GSNO reducing activity (mouse GS-FDH): about 6%

Compound: CCCc1nn(C)c2c(=O)[nH]c(-c3cc(S(=O)(=O)N4CCN(C)CC4)ccc3OCC)nc12 [Viagra]
- impotence (impotence; Viagra alone): no improvement

Compound: NC(=O)c1coc([C@@H]2O[C@H](CO)[C@@H](O)[C@H]2O)c1 [furanfurin, 5-β-D-ribofuranosylfuran-3-carboxamide]
- activity as antitumor agent (tumors): inactive

Compound: COc1c(C)c2c(c(O)c1C/C=C(\C)CCC(=O)O)C(=O)OC2 [mycophenolic acid]
- outcome of stent deployment (restenosis): successful results
- impotence (impotence; topical 5% paste added to Viagra): good results

Compound: NC(=O)c1ncn([C@@H]2O[C@H](CO)[C@@H](O)[C@H]2O)n1 [ribavirin]
- angina (intractable angina): angina had improved
- symptoms (shortness of breath, hemoptysis) (pulmonary embolism): improvement in symptoms
- psoriatic lesion (chronic psoriasis): psoriatic lesion had resolved
- skin lesion (ringworm): skin lesion resolve
- activity as antitumor agent (tumors): inactive

Compound: nitroprusside
- Blood pressure, systolic (malignant hypertension; nitroprusside alone, 1.0 μg/kg/min IV infusion for 10 minutes, from 240): 200
